# Experimental data reported in ChEMBL document CHEMBL3832074, “DailyMed|setid=ad6a2b73-29d4-4ced-ba42-4c2ad1c5a1af | ENTACAPONE - entacapone tablet, film coated|Sun Pharma Global FZE”.
# How the values were obtained:
# Format in all cases: ADME, organism-based
# Homo sapiens [1] = experiment: (§1) Pharmacokinetic parameters for Enctacpone after single oral administartion of 200 and 800 mg Entacapone tablets to volunteers.; design: dose 200 mg, route oral; details: in vivo, dosed compound id 40, dosed compound name ENTACAPONE, gender male and female, regimen Single dose, route oral, tissue Plasma
# [2] = as §1; design: dose 200 mg, route oral; details: human, in vivo, 200 mg, dosed compound id 40, dosed compound name ENTACAPONE, regimen Single dose, tissue Plasma
# Homo sapiens [3] = experiment: Pharmcokinetic parameters for Enctacpone following oral administration of Entacapone.; details: in vivo, dosed compound id 40, dosed compound name ENTACAPONE; for Excretion: po
smiles,measurement,setting,value
CCN(CC)C(=O)/C(C#N)=C/c1cc(O)c(O)c([N+](=O)[O-])c1 [ENTACAPONE],Inhibition,Homo sapiens [1]; at 200 mg,65%
same,Inhibition,Homo sapiens [1]; at 800 mg,82%
same,Cmax,[2],1200 ng/mL
same,CL,"Homo sapiens [3]; route iv, tissue Plasma",850 mL/min
same,Excretion,Homo sapiens [3]; tissue Feces,90%
same,Excretion,Homo sapiens [3]; tissue Urine,10%
